Test results: PMC8776995 (Frontiers in Chemistry, 2022)
Several values for one entry are separate records, joined by “and”; a condition that tells them apart may be missing. Equal values may be shown once.

Tests used:
wild-type EGFR = wild-type EGFR (Homo sapiens, UniProt P00533); assay: EGFR kinase assay (ELISA); settings: for IC50: IC50 (μM) EGFR, ELISA, 3 μmol/L ATP; for inhibition at 100 fM: concentration 0.0001 nM (reference for normalisation); for inhibition at 100 fM / inhibition at 30 pM / inhibition at 0.0003 µM / Inhibition / inhibition at 0.003 µM / inhibition at 0.03 µM / inhibition at 0.3 µM / inhibition at 3 µM / inhibition at 30 µM: one value per replicate column; for A450: raw ELISA absorbance
Sequence of wild-type EGFR (P00533 25-1210): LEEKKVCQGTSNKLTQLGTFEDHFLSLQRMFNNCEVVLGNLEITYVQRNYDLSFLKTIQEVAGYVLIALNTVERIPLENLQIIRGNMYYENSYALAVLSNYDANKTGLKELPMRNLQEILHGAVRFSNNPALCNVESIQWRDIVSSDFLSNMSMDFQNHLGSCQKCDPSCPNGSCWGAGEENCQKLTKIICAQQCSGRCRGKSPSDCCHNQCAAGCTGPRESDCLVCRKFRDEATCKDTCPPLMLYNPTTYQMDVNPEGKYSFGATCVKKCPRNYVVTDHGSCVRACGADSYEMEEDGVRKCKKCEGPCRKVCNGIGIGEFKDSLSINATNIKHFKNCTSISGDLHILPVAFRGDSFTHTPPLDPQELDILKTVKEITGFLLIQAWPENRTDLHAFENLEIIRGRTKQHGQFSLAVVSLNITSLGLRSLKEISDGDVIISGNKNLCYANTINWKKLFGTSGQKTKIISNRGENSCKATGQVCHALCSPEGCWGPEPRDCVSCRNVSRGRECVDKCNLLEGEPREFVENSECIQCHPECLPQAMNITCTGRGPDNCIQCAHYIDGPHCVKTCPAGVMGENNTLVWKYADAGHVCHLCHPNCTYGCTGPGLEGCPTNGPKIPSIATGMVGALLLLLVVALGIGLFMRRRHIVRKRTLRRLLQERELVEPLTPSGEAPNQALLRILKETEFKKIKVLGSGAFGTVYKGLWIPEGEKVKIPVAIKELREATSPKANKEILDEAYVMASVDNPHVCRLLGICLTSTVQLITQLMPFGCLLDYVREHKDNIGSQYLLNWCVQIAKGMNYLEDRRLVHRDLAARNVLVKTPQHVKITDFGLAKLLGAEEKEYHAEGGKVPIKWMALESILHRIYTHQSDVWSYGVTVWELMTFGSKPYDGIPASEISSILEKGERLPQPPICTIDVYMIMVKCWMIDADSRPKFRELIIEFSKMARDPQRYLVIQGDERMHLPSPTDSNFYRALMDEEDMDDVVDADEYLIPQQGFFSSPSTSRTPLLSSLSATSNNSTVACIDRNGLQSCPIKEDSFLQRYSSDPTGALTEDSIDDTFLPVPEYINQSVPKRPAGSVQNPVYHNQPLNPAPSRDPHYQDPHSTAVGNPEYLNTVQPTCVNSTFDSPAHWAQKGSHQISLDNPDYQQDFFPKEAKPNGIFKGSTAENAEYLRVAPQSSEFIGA

H460 cells = assay: CCK-8 antiproliferation assay, H460; settings: for Inhibitory efficacy: H460 cells; for IC50: NCI-H460, 48 h, read-out: IC50 (μM) H460, CCK-8, 48 h, average ± SD of three independent experiments
A549 cells = assay: CCK-8 antiproliferation assay, A549; settings: for Inhibitory efficacy: A549 cells; for IC50: A549, 48 h, read-out: IC50 (μM) A549, CCK-8, 48 h, average ± SD of three independent experiments
PC-9 cells = assay: CCK-8 antiproliferation assay, PC-9; settings: for IC50: PC-9, 48 h, read-out: IC50 (μM) PC-9; for Inhibitory efficacy: single repeats (Repeat 1-3), given as fraction
Description: The compounds were dissolved in DMSO to make a 20 μM stock solution and diluted to the concentration of working solutions with complete growth medium before administration.
Cells were seeded in 96-well plates: 3,000–5,000 cells/well in 100 ul. One day after seeding, the test compounds at concentration between 1.0 and 16.0 μ M or 0.1% DMSO (as control) were added to cells in triplicate. 48 h later, CCK-8 was added and incubated the plate for 1–4 h in the incubator. The absorbance at 450 nm were measured using a microplate reader (Bio-Tek).

H1975 cells = assay: CCK-8 antiproliferation assay, H1975; settings: for IC50: NCI-H1975, 48 h, read-out: IC50 (μM) H1975, CCK-8, 48 h, average ± SD of three independent experiments
[1] = concentration 0.3 nM, 0.0003 µM
[2] = 2uM, given as fraction, Repeat 1-3
[3] = 16uM, given as fraction, Repeat 1-3
[4] = 1uM, given as fraction, Repeat 1-3
[5] = 4uM, given as fraction, Repeat 1-3
[6] = Homo sapiens, A549, read-out: Inhibitory efficacy, A549 cells, 2uM, given as fraction, Repeat 1-3
[7] = Homo sapiens, A549, read-out: Inhibitory efficacy, A549 cells, 4uM, given as fraction, Repeat 1-3
[8] = Homo sapiens, A549, read-out: Inhibitory efficacy, A549 cells, 16uM, given as fraction, Repeat 1-3

Work on COCCOc1cc2ncnc(Nc3cccc(-c4cn(-c5ccc(OC)c(OC)c5)nn4)c3)c2cc1OCCOC [e19, N-(3-(1-(3,4-dimethoxyphenyl)-1H-1,2,3-triazol-4-yl)phenyl)-6,7-bis(2-methoxyethoxy)quinazolin-4-amine] yielded a melting point of 106 to 109 °C, an IC50 (wild-type EGFR) of 28.1 µM and an inhibition at 100 fM (wild-type EGFR) of 0%. For the same molecule, the inhibition at 30 pM (wild-type EGFR; concentration 0.03 nM) was 0%, the inhibition at 0.0003 µM (wild-type EGFR; concentration 0.3 nM) was 1.06% and the Inhibition (wild-type EGFR; [1]) was 0.9259. The inhibition at 0.003 µM (wild-type EGFR; concentration 3 nM) was 2.12%, the Inhibition (wild-type EGFR; concentration 3 nM, 0.003 µM) was 3.333 and the inhibition at 0.03 µM (wild-type EGFR; concentration 30 nM) was 6.35%. The Inhibition (wild-type EGFR; concentration 30 nM, 0.03 µM) was 7.222, the inhibition at 0.3 µM (wild-type EGFR; concentration 300 nM) was 6.7% and the Inhibition (wild-type EGFR; concentration 300 nM, 0.3 µM) was 10.3704. For the same molecule, the inhibition at 3 µM (wild-type EGFR; concentration 3000 nM) was 8.29%, the Inhibition (wild-type EGFR; concentration 3000 nM, 3 µM) was 15.5556 and the inhibition at 30 µM (wild-type EGFR; concentration 30000 nM) was 52.7%. For the same molecule, the Inhibition (wild-type EGFR; concentration 30000 nM, 30 µM) was 51.6667, the A450 (wild-type EGFR; concentration 0.0001 nM) was 0.772 and 0.745 and the A450 (wild-type EGFR; concentration 0.03 nM) was 0.772 and 0.745. For the same molecule, the A450 (wild-type EGFR; concentration 0.3 nM) was 0.766 and 0.74, the A450 (wild-type EGFR; concentration 3 nM) was 0.76 and 0.727 and the A450 (wild-type EGFR; concentration 30 nM) was 0.736 and 0.706. For the same molecule, the A450 (wild-type EGFR; concentration 300 nM) was 0.734 and 0.689, the A450 (wild-type EGFR; concentration 3000 nM) was 0.725 and 0.661 and the A450 (wild-type EGFR; concentration 30000 nM) was 0.473 and 0.466. For the same molecule, the Inhibitory efficacy (H460 cells; [2]) was 0.2578 and 0.3115, the Inhibitory efficacy (H460 cells; [3]) was 0.424 and 0.3358 and the IC50 (H460 cells; Homo sapiens) was greater than 100 µM. For the same molecule, the inhibition at 2 µM (H460 cells; Homo sapiens, NCI-H460, read-out: Inhibitory efficacy, H460 cells, 2uM, given as fraction, Repeat 1-3) was 32.2%, the inhibition at 16 µM (H460 cells; Homo sapiens, NCI-H460, read-out: Inhibitory efficacy, H460 cells, 16uM, given as fraction, Repeat 1-3) was 33.1% and the Inhibitory efficacy (A549 cells; [4]) was 0.1948 and 0.1677. The Inhibitory efficacy (A549 cells; [2]) was 0.2727 and 0.2237, the Inhibitory efficacy (A549 cells; [5]) was 0.2792 and 0.2418 and the Inhibitory efficacy (A549 cells; [3]) was 0.2527 and 0.2605. The IC50 (A549 cells; Homo sapiens) was greater than 100 µM, the inhibition at 1 µM (A549 cells; Homo sapiens, A549, read-out: Inhibitory efficacy, A549 cells, 1uM, given as fraction, Repeat 1-3) was 21.2% and the inhibition at 2 µM (A549 cells; [6]) was 23.7%. The inhibition at 4 µM (A549 cells; [7]) was 19.7%, the inhibition at 16 µM (A549 cells; [8]) was 26.2% and the IC50 (PC-9 cells; Homo sapiens) was 23.5 ± 10.2 µM. For the same molecule, the inhibition at 1 µM (PC-9 cells; Homo sapiens, PC-9, read-out: Inhibitory efficacy, PC-9, 1uM, single repeats (Repeat 1-3), given as fraction) was 21.9%, the inhibition at 2 µM (PC-9 cells; Homo sapiens, PC-9, read-out: Inhibitory efficacy, PC-9, 2uM, single repeats (Repeat 1-3), given as fraction) was 32.9% and the inhibition at 8 µM (PC-9 cells; Homo sapiens, PC-9, read-out: Inhibitory efficacy, PC-9, 8uM, single repeats (Repeat 1-3), given as fraction) was 35.7%. For the same molecule, the inhibition at 16 µM (PC-9 cells; Homo sapiens, PC-9, read-out: Inhibitory efficacy, PC-9, 16uM, single repeats (Repeat 1-3), given as fraction) was 49.7%, the Inhibitory efficacy (PC-9 cells; PC-9, 1uM, 1 µM) was 0.1694 and 0.3158 and the Inhibitory efficacy (PC-9 cells; PC-9, 2uM, 2 µM) was 0.2911 and 0.3553. For the same molecule, the Inhibitory efficacy (PC-9 cells; PC-9, 4uM, 4 µM) was 0.4984 and 0.2516 and 0.3668, the Inhibitory efficacy (PC-9 cells; PC-9, 8uM, 8 µM) was 0.4737 and 0.4424 and the Inhibitory efficacy (PC-9 cells; PC-9, 16uM, 16 µM) was 0.4062 and 0.4457. The IC50 (H1975 cells; Homo sapiens) was greater than 100 µM.

With COCCOc1cc2ncnc(Nc3cccc(-c4cn(CCc5ccccc5)nn4)c3)c2cc1OCCOC [e20, [6,7-Bis-(2-methoxy-ethoxy)-quinazolin-4-yl]-[3-(1-phenethyl-1H-[1,2,3]triazol-4-yl)-phenyl]-amine] the melting point was 109 to 112 °C, the IC50 (wild-type EGFR) was 0.28 µM and the inhibition at 100 fM (wild-type EGFR) was 0%. The inhibition at 30 pM (wild-type EGFR; concentration 0.03 nM) was 3.3%, the Inhibition (wild-type EGFR; concentration 0.03 nM, 3e-05 µM) was 3.99 and the inhibition at 0.0003 µM (wild-type EGFR; concentration 0.3 nM) was 21.7%. It also gave an Inhibition (wild-type EGFR; [1]) of 27.0358, an inhibition at 0.003 µM (wild-type EGFR; concentration 3 nM) of 38.5% and an Inhibition (wild-type EGFR; concentration 3 nM, 0.003 µM) of 33.7948. For the same molecule, the inhibition at 0.03 µM (wild-type EGFR; concentration 30 nM) was 40.5%, the Inhibition (wild-type EGFR; concentration 30 nM, 0.03 µM) was 35.1792 and the inhibition at 0.3 µM (wild-type EGFR; concentration 300 nM) was 42.1%. The Inhibition (wild-type EGFR; concentration 300 nM, 0.3 µM) was 40.798, the inhibition at 3 µM (wild-type EGFR; concentration 3000 nM) was 55.8% and the Inhibition (wild-type EGFR; concentration 3000 nM, 3 µM) was 51.9544. The inhibition at 30 µM (wild-type EGFR; concentration 30000 nM) was 88.6%, the Inhibition (wild-type EGFR; concentration 30000 nM, 30 µM) was 85.4235 and the A450 (wild-type EGFR; concentration 0.0001 nM) was 1.605 and 1.533. The A450 (wild-type EGFR; concentration 0.03 nM) was 1.562 and 1.484, the A450 (wild-type EGFR; concentration 0.3 nM) was 1.323 and 1.201 and the A450 (wild-type EGFR; concentration 3 nM) was 1.104 and 1.118. The A450 (wild-type EGFR; concentration 30 nM) was 1.078 and 1.101, the A450 (wild-type EGFR; concentration 300 nM) was 1.057 and 1.032 and the A450 (wild-type EGFR; concentration 3000 nM) was 0.879 and 0.895. For the same molecule, the A450 (wild-type EGFR; concentration 30000 nM) was 0.452 and 0.484, the Inhibitory efficacy (H460 cells; [4]) was 0.1948 and 0.1895 and the Inhibitory efficacy (H460 cells; [5]) was 0.1258 and 0.07143. For the same molecule, the IC50 (H460 cells; Homo sapiens) was greater than 100 µM, the inhibition at 1 µM (H460 cells; Homo sapiens, NCI-H460, read-out: Inhibitory efficacy, H460 cells, 1uM, given as fraction, Repeat 1-3) was 17.3% and the inhibition at 4 µM (H460 cells; Homo sapiens, NCI-H460, read-out: Inhibitory efficacy, H460 cells, 4uM, given as fraction, Repeat 1-3) was 9.76%. The Inhibitory efficacy (A549 cells; [2]) was 0.2224 and 0.1702, the Inhibitory efficacy (A549 cells; [5]) was 0.2939 and 0.3309 and the Inhibitory efficacy (A549 cells; 8uM, given as fraction, Repeat 1-3) was 0.2956 and 0.3275. The Inhibitory efficacy (A549 cells; [3]) was 0.2156 and 0.1736, the IC50 (A549 cells; Homo sapiens) was greater than 100 µM and the inhibition at 2 µM (A549 cells; [6]) was 18.8%. The inhibition at 4 µM (A549 cells; [7]) was 29.1%, the inhibition at 8 µM (A549 cells; Homo sapiens, A549, read-out: Inhibitory efficacy, A549 cells, 8uM, given as fraction, Repeat 1-3) was 22.2% and the inhibition at 16 µM (A549 cells; [8]) was 20.2%. For the same molecule, the IC50 (PC-9 cells; Homo sapiens) was greater than 100 µM, the Inhibitory efficacy (H1975 cells; H1975 cells, 16uM, given as fraction, Repeat 1-3) was 0.06216 and 0.05712 and the IC50 (H1975 cells; Homo sapiens) was greater than 100 µM. The inhibition at 16 µM (H1975 cells; Homo sapiens, NCI-H1975, read-out: Inhibitory efficacy, H1975 cells, 16uM, given as fraction, Repeat 1-3) was 8.81%.
